Source: the CheMixHub ionic liquid set
Where “and” joins values, the source holds several entries; their conditions need not be identical. Equal values may be shown once.

Test: xn = mol fraction of the nth substance listed

CC[n+]1ccn(C)c1.O=S(=O)([O-])C(F)(F)F + O=S(=O)([O-])C(F)(F)F.[Li+]
101 kPa, x1 = 1
Details	electrical conductivity [S/m]
288.15 K	0.605
298.15 K	0.859
333.15 K	2.24

CC[n+]1ccn(C)c1.O=S(=O)([O-])C(F)(F)F + O=[N+]([O-])[O-].[Li+]
101 kPa, x1 = 1
Details	electrical conductivity [S/m]
288.15 K	0.605
298.15 K	0.859
333.15 K	2.24

CCCC[P+](CCCC)(CCCC)CCCC.[Br-] + OCC(O)CO
101.3 kPa, x1 = 0.333
Details	viscosity [mPa·s]
293.15 K	468
298.15 K	329
303.15 K	235
308.15 K	172
313.15 K	116
318.15 K	97.1
323.15 K	68.4

CC[n+]1ccn(C)c1.O=S(=O)([O-])C(F)(F)F + OCC(O)CO
100 kPa
Details	electrical conductivity [S/m]	viscosity [mPa·s]
293.15 K, x1 = 0.002	–	1372
293.15 K, x2 = 0.199	–	48.9
293.15 K, x2 = 0.605	–	97.9
293.15 K, x2 = 0.698	–	146.4
293.15 K, x2 = 0.962	–	968
298.15 K, x1 = 0.002	0.000274	–
298.15 K, x1 = 0.004	0.00056	–
298.15 K, x1 = 0.011	0.00141	–
298.15 K, x1 = 0.018	0.00247	–
298.15 K, x2 = 0.401	0.68	45.4
303.15 K, x2 = 0.962	–	425
313.15 K, x1 = 0.002	0.00084	–
313.15 K, x1 = 0.004	0.00176	–
313.15 K, x1 = 0.011	0.00439	–
313.15 K, x1 = 0.018	0.0079	243
313.15 K, x2 = 0.299	1.27	23.4

CCCC[P+](CCCC)(CCCC)CCCC.[Br-] + OCC(O)CO + O
viscosity [mPa·s], 101.3 kPa
Details	x1 = 0.03663, x2 = 0.07337	x1 = 0.06194, x2 = 0.1241	x1 = 0.09824, x2 = 0.1968	x1 = 0.1305, x2 = 0.2615	x1 = 0.1725, x2 = 0.3455	x1 = 0.1845, x2 = 0.3695	x1 = 0.2344, x2 = 0.4696	x1 = 0.2594, x2 = 0.5196	x1 = 0.3007, x2 = 0.6023	x1 = 0.333, x2 = 0.667
293.15 K	9.46	24.1	60.1	99	156	170	249	300	393	468
298.15 K	7.51	18.5	45.8	72.1	109	120	176	212	276	329
303.15 K	6.25	15	35.7	55	79.9	90.9	130	154	198	235
308.15 K	5.21	12	28.3	42.6	62.8	67.8	96.5	118	145	172
313.15 K	4.15	9.9	22.1	32.4	47	49.3	66.5	88.4	99	116
318.15 K	3.74	8.49	18	26.4	38.4	41.4	57.6	67.5	83.2	97.1
323.15 K	3.26	7.02	14.5	21	29	31.2	42.5	50.4	57.9	68.4

CCCC[P+](CC)(CCCC)CCCC.[Br-] + OCCO
101 kPa, x1 = 0.333
Details	viscosity [mPa·s]
303.15 K	43.82
313.15 K	29.04
323.15 K	20.08
333.15 K	14.44
343.15 K	10.69
353.15 K	8.22

CCCC[P+](CCCC)(CCCC)CCCC.[Br-] + OCCO
101.3 kPa, x1 = 0.333
Details	viscosity [mPa·s]
293.15 K	122
323.15 K	29.9

CC[n+]1ccn(C)c1.O=S(=O)([O-])C(F)(F)F + OCCO
100 kPa
Details	electrical conductivity	viscosity [mPa·s]
293.15 K, x1 = 0.001	–	20.7
293.15 K, x1 = 0.007	–	20.4
293.15 K, x2 = 0.974	–	19.6
298.15 K, x1 = 0.001	0.0058 S/m and 0.0109 S/m	16.9
298.15 K, x2 = 0.798	–	16.62
303.15 K, x1 = 0.013	–	13.4
303.15 K, x2 = 0.0943	–	30.94
303.15 K, x2 = 0.2	–	23.4
308.15 K, x2 = 0.6019	–	13.71
308.15 K, x2 = 0.8964	–	11.78
313.15 K, x1 = 0.001	0.01 S/m and 0.0188 S/m	9.53
313.15 K, x2 = 0.408	–	13.87
313.15 K, x2 = 0.497	–	10.6
313.15 K, x2 = 0.808	1.51 S/m	8
318.15 K, x2 = 0.0943	–	19.42
323.15 K, x2 = 0.0943	–	16.91
323.15 K, x2 = 0.2021	–	13.96
323.15 K, x2 = 0.408	–	11.12

CCCC[P+](CCCC)(CCCC)CCCC.[Br-] + OCCO + O
viscosity [mPa·s], 101.3 kPa
Details	x1 = 0.0383, x2 = 0.0767	x1 = 0.06893, x2 = 0.1381	x1 = 0.09557, x2 = 0.1914	x1 = 0.1302, x2 = 0.2608	x1 = 0.1675, x2 = 0.3355	x1 = 0.1968, x2 = 0.3942	x1 = 0.2368, x2 = 0.4742	x1 = 0.2634, x2 = 0.5276	x1 = 0.3054, x2 = 0.6116	x1 = 0.333, x2 = 0.667
293.15 K	4.67	11.5	20.5	35.1	50.8	62	74.1	82.3	105	122
298.15 K	3.8	9.08	16.1	27.2	38.8	48.1	57	64.1	78.1	93.4
303.15 K	3.15	7.34	13	21.7	31	38.2	44.5	49.4	63.7	72.4
308.15 K	2.74	6.11	10.6	17.7	24.9	30.1	35.3	39.5	50.2	56.9
313.15 K	2.35	5.21	8.88	14.4	20.5	24.5	28.3	32.2	39.9	45.3
318.15 K	2.08	4.43	7.33	11.9	16.8	20.1	23.1	26.4	32.4	36.6
323.15 K	1.84	3.8	6.34	10.1	13.9	16.8	19	21.9	26.6	29.9

CCCC[P+](CC)(CCCC)CCCC.[Br-] + OCCOCCO
101 kPa, x1 = 0.333
Details	viscosity [mPa·s]
333.15 K	23.07
353.15 K	12.73
